Experimental data from BigSolDB 2.1.

Oc1ccc([C@@H]2COc3cc(O)ccc3C2)cc1
solubility (mole fraction) (in isobutanol, 273.15 K): 0.0174
solubility (mole fraction) (in isobutanol, 278.15 K): 0.02
solubility (mole fraction) (in isobutanol, 283.15 K): 0.0229
solubility (mole fraction) (in isobutanol, 288.15 K): 0.0261
solubility (mole fraction) (in isobutanol, 293.15 K): 0.0296
solubility (mole fraction) (in isobutanol, 298.15 K): 0.0334
solubility (mole fraction) (in isobutanol, 303.15 K): 0.0376
solubility (mole fraction) (in isobutanol, 308.15 K): 0.0421
solubility (mole fraction) (in isobutanol, 313.15 K): 0.047
solubility (mole fraction) (in isobutanol, 318.15 K): 0.0523
solubility (mole fraction) (in isobutanol, 323.15 K): 0.058
solubility (mole fraction) (in isobutanol, 328.15 K): 0.0641
solubility (mole fraction) (in isobutanol, 333.15 K): 0.0706
solubility (mole fraction) (in isopentanol, 273.15 K): 0.0226
solubility (mole fraction) (in isopentanol, 278.15 K): 0.0261
solubility (mole fraction) (in isopentanol, 283.15 K): 0.0301
solubility (mole fraction) (in isopentanol, 288.15 K): 0.0345
solubility (mole fraction) (in isopentanol, 293.15 K): 0.0394
solubility (mole fraction) (in isopentanol, 298.15 K): 0.0447
solubility (mole fraction) (in isopentanol, 303.15 K): 0.0506
solubility (mole fraction) (in isopentanol, 308.15 K): 0.057
solubility (mole fraction) (in isopentanol, 313.15 K): 0.0639
solubility (mole fraction) (in isopentanol, 318.15 K): 0.0715
solubility (mole fraction) (in isopentanol, 323.15 K): 0.0797
solubility (mole fraction) (in isopentanol, 328.15 K): 0.0885
solubility (mole fraction) (in isopentanol, 333.15 K): 0.098
solubility (mole fraction) (in isopropanol, 273.15 K): 0.0295
solubility (mole fraction) (in isopropanol, 278.15 K): 0.035
solubility (mole fraction) (in isopropanol, 283.15 K): 0.0412
solubility (mole fraction) (in isopropanol, 288.15 K): 0.0482
solubility (mole fraction) (in isopropanol, 293.15 K): 0.0561
solubility (mole fraction) (in isopropanol, 298.15 K): 0.065
solubility (mole fraction) (in isopropanol, 303.15 K): 0.0749
solubility (mole fraction) (in isopropanol, 308.15 K): 0.086
solubility (mole fraction) (in isopropanol, 313.15 K): 0.0982
solubility (mole fraction) (in isopropanol, 318.15 K): 0.112
solubility (mole fraction) (in isopropanol, 323.15 K): 0.127
solubility (mole fraction) (in isopropanol, 328.15 K): 0.143
solubility (mole fraction) (in isopropanol, 333.15 K): 0.161
solubility (mole fraction) (in n-butanol, 273.15 K): 0.0242
solubility (mole fraction) (in n-butanol, 278.15 K): 0.0284
solubility (mole fraction) (in n-butanol, 283.15 K): 0.0331
solubility (mole fraction) (in n-butanol, 288.15 K): 0.0384
solubility (mole fraction) (in n-butanol, 293.15 K): 0.0442
solubility (mole fraction) (in n-butanol, 298.15 K): 0.0508
solubility (mole fraction) (in n-butanol, 303.15 K): 0.0581
solubility (mole fraction) (in n-butanol, 308.15 K): 0.0661
solubility (mole fraction) (in n-butanol, 313.15 K): 0.0749
solubility (mole fraction) (in n-butanol, 318.15 K): 0.0846
solubility (mole fraction) (in n-butanol, 323.15 K): 0.0951
solubility (mole fraction) (in n-butanol, 328.15 K): 0.107
solubility (mole fraction) (in n-butanol, 333.15 K): 0.119
solubility (mole fraction) (in n-heptane, 273.15 K): 0.000431
solubility (mole fraction) (in n-heptane, 278.15 K): 0.00049
solubility (mole fraction) (in n-heptane, 283.15 K): 0.000554
solubility (mole fraction) (in n-heptane, 288.15 K): 0.000624
solubility (mole fraction) (in n-heptane, 293.15 K): 0.000699
solubility (mole fraction) (in n-heptane, 298.15 K): 0.000781
solubility (mole fraction) (in n-heptane, 303.15 K): 0.00087
solubility (mole fraction) (in n-heptane, 308.15 K): 0.000964
solubility (mole fraction) (in n-heptane, 313.15 K): 0.00107
solubility (mole fraction) (in n-heptane, 318.15 K): 0.00117
solubility (mole fraction) (in n-heptane, 323.15 K): 0.00129
solubility (mole fraction) (in n-heptane, 328.15 K): 0.00141
solubility (mole fraction) (in n-heptane, 333.15 K): 0.00155
solubility (mole fraction) (in n-pentanol, 273.15 K): 0.0235
solubility (mole fraction) (in n-pentanol, 278.15 K): 0.0273
solubility (mole fraction) (in n-pentanol, 283.15 K): 0.0317
solubility (mole fraction) (in n-pentanol, 288.15 K): 0.0365
solubility (mole fraction) (in n-pentanol, 293.15 K): 0.0419
solubility (mole fraction) (in n-pentanol, 298.15 K): 0.0478
solubility (mole fraction) (in n-pentanol, 303.15 K): 0.0544
solubility (mole fraction) (in n-pentanol, 308.15 K): 0.0616
solubility (mole fraction) (in n-pentanol, 313.15 K): 0.0695
solubility (mole fraction) (in n-pentanol, 318.15 K): 0.078
solubility (mole fraction) (in n-pentanol, 323.15 K): 0.0874
solubility (mole fraction) (in n-pentanol, 328.15 K): 0.0975
solubility (mole fraction) (in n-pentanol, 333.15 K): 0.108
